This data set is described as follows: Evaluation of solubility of surfactant. It is filed as physicochemical. The following applies: surfactant dissolved in distilled water to a concentration of 0.75 mg/mL. The procedure: In order to use a surfactant, it is essential that the solubility of a sample itself be excellent. First of all, if the sample is not dissolved it cannot be used at all, and thus the solubility of a surfactant was evaluated as a prerequisite.

As for `CCCCCCCCCCCCCC(=O)NCCC[N+](C)(C)CCCS(=O)(=O)[O-]` [Comp. Ex. 1], the Solubility result is “∘ (dissolved at a concentration of 0.75 mg/mL)”.

The values above are taken from patent US9435792B2, “Hemolysis reagent composition for hemoglobin A1C quantitative analysis using enzymatic method” (I-Sens, Inc., priority 2012, dated 2016).
